Data reported in patent publication US9572831B2, “Composition and method for sulfated non-anticoagulant low molecular weight heparins in cancer and tumor metastasis” (priority 2013, dated 2017).
Like-named read-outs stand apart in the source and are kept apart here.

Columns and labels:
[1] = test system: 253JBV bladder cells; test: Western blots of bladder cancer cell proteins; assay type: cell-based; conditions: 48 hour; Cisplatin 10 ug/ml, S-NACH 20 ug/ml, LMWH 20 ug/ml
Description: 253JBV bladder cells were cultured and treated [Control (PBS), Cisplatin (10 ug/ml), S-NACH (20 ug/ml), LMWH (20 ug/ml)] for 48 hour. Total proteins were collected to quantitate expression of the proteins using western blots.

[2] = test system: MCF7-WT cells; test: Nanoparticle Dox formulations in mice with MCF7-WT tumors; assay type: in vivo; conditions: treatment begun 10 days after inoculation; n=8
Description: Mice were inoculated with 1.4×10^7 MCF7-WT cells. […] Tumor volume measurements were obtained over time course shown. Values are mean tumor volume in mm^3±SEM, n=8 mice/group.

[3] = test system: MCF7-R cells; test: Nanoparticle Dox formulations in mice with MCF7-R tumors; assay type: in vivo
Description: FIG. 20 depicts anti-tumor efficacy of nanoparticle formulations encapsulating Doxorubicin with and without LMWHs vs. un-encapsulated Doxorubicin in mice with MCF7-R Tumors, in accordance with embodiments of the present invention. […] Treatments, as shown in legend, were begun after tumors had reached a size of 50-100 mm^3. Tumor volumes were measured daily. Animals were euthanized when Controls reached a size of 2000 mm^3 (as per IACUC approval).
In vivo data using in mice xenograft (MCF-7R) are shown in Table 5 (amounts of doxorubicin and NACH injected in all cases were 0.625 mg/kg and 2.5 mg/kg body weight).

[4] = test system: MPanc96-luc cells; assay type: in vivo, athymic nude mice; conditions: S-NACH 20 mg/kg s.c. daily, gemcitabine 100 mg/kg i.p. twice a week, 28 days
Description: MPanc96-luc cells were harvested as described above and were orthotopically implanted (2×10^5 cells in 50 μl PBS per mouse) in the pancreas of anesthetized athymic nude mice. Just before treatment initiation, animals (n=10 per group) were randomized by tumor mass detected by an in vivo imaging system (IVIS, described below). Heparin derivatives S-NACH at 20 mg/kg and tinzaparin at 5 mg/kg were administered subcutaneously daily. Gemcitabine at 100 mg/kg was injected intraperitoneally twice a week alone or in combination with either S-NACH or tinzaparin. All mice used for treatment response evaluations were euthanized after 28 days. See Table 2 for the protocol of the study. Imaging was performed once per week to monitor tumor growth. Mice bearing MPanc96-luc tumors were anaesthetized using isoflurane, injected subcutaneously with 50 μl D-luciferin (30 mg/ml), then imaged. Photographic and luminescence images were taken at constant exposure time. Xenogen IVIS® Living Image software version 3.2 was used to quantify non-saturated bioluminescence in regions of interest. Light emission between 5.5×10^6-7.0×10^10 photons was assumed to be indicative of viable luciferase-labeled tumor cells while emissions below this range were considered as background. Bioluminescence was quantified as photons/second for each region of interest. In vivo tumor kinetic growth and metastasis were monitored by signal intensity. Ex vivo imaging was performed to confirm the signal intensity in the tumors after the termination. All specimens were analyzed by histology for routine analysis. Specimens were fixed in 10% buffered formalin, processed routinely, and embedded in paraffin. Then, after fixation, the specimens were transferred into the embedding chambers to hold the specimens in position until the paraffin became solid to prevent further rotation. Four μm serial sections were cut, and then stained using haematoxylin and eosin. Sections were evaluated for various pathologic parameters using a light microscope (Leica, Buffalo Grove, Ill.).

[5] = Whole blood clotting times by Sonoclot Analyzer and TEG; assay type: in vivo; conditions: intravenous, 10 mg/kg, mice, n=5
Description: Two heparins, commercial formulation Enoxaparin and non-anticoagulant heparin (NACH) including S-NACH or S-SNACH were evaluated for their effects on coagulation. Whole blood clotting times were measured by the Sonoclot Analyzer (left panel) and by TEG (right panel); n=5.

[6] = test system: intrinsic pathway of the coagulation cascade; test: APTT assay; assay type: biochemical
Description: Activated Partial Thromboplastin Time (aPTT) is sensitive to all factors in the intrinsic pathway of the coagulation cascade and the presence of heparin. The aPTT was measured for each of the 8 USP heparins, using the ACL 8000 Beckman Coulter coagulation analyzer and the Trinity Biotech Trini CLOT Automated aPTT assay kit (Berkeley Heights, N.J.). Additionally, aPTT was measured for heparin, LMWH, and S-NACH.

[7] = Mouse deaths over all experiments; assay type: in vivo, mice
Description: In the second experiment, a higher concentration of S-SNACH (20 mg/kg) was used. […] The percentile death of mice was high in the LMWH group and reached 6 animals (50%) at the end of the experiment due to internal bleeding after two invasive surgeries. At the end of all experiments, the percentile death among all groups was calculated and compared.
The average dose of LMWH for enoxaparin in humans is 1.0-1.5 mg/kg and relatively higher in mice. In the experiment performed in the present invention, 5-10 mg/kg was used for LMWH (tinzaparin) and as high as 20-100 mg/kg was used for SNACH.

Molecule: N.N.[Cl][Pt][Cl] [Cisplatin]
- E-cadherin protein expression [1]: increased
- MMP-2 protein expression [1]: reduced

Molecule: COc1cccc2c1C(=O)c1c(O)c3c(c(O)c1C2=O)C[C@@](O)(C(=O)CO)C[C@@H]3O[C@H]1C[C@H](N)[C@H](O)[C@H](C)O1 [Doxorubicin]
- tumor growth (tumor volume) [2]: effectively inhibited
- tumor volume over time ([3]; FIG. 20 Panel A): same pattern of tumor growth as untreated controls
- Tumor Mass ([3]; doxorubicin 0.625 mg/kg, NACH 2.5 mg/kg body weight, mean): 1.3 g

Molecule: Nc1ccn([C@@H]2O[C@H](CO)[C@@H](O)C2(F)F)c(=O)n1 [Gemcitabine]
- tumor luciferin signal intensity [4]: reduced
- tumor weights [4]: reduced
- tumor luciferin signal intensity ([4]; listed as GEM): suppression of tumor signal intensity

Molecule: Enoxaparin
- clot times (whole blood clotting time, time to clot initiation) [5]: significantly prolonged

Molecule: Heparin
- aPTT [6]: increased aPTT in a dose-dependent manner
- rate of death among the mice [7]: higher mortality
